Source: patent publication US11008340B2, “Modulators of ROR-gamma” (Vitae Pharmaceuticals, LLC, priority 2015, dated 2021)
Like-named read-outs stand apart in the source and are kept apart here.

Target: T1, recombinant RORγ Ligand Binding Domain (LBD) protein (Homo sapiens, UniProt P51449)
T1 construct: 6×His; GST
T1 sequence (P51449 269-508 limits assumed): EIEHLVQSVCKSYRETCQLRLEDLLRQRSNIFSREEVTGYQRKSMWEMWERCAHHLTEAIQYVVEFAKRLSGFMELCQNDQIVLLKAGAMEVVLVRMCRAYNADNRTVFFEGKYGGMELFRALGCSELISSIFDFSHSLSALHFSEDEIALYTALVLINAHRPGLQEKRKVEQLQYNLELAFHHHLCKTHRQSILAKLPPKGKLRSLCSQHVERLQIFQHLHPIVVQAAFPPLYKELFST
Experiment: Radio-Ligand RORγ Binding Assay (Assay 1)
Settings: radio-ligand competition, RORγ LBD, read-out: Avg ROR Bind Ki
Experimental: Radio-Ligand RORγ Binding Assay (Assay 1)
Compounds described herein were tested for ability to bind to RORγ in a cell-free competition assay with commercially available radio-ligand (RL), 25-hydroxy [26,27-^3H]-cholesterol (PerkinElmer, Cat. #NET674250UC), for a ligand binding site on a recombinant RORγ Ligand Binding Domain (LBD) protein expressed as a 6×His-Glutathione-S-Transferase (GST) fusion. The assay was performed in 96-well SPA plates (PerkinElmer, Cat. #1450-401) in 50 mM HEPES buffer, pH 7.4, containing 150 mM NaCl, 5 mM MgCl2, 10% (v/v) glycerol, 2 mM CHAPS, 0.5 mM 3-octylglucopyranoside and 5 mM DTT. Tested compounds were dissolved in DMSO, and semi-log (3.162×) serial dilutions of the compounds were prepared in the same solvent. Two μL of the DMSO solutions were mixed with 28 μL of 8.6 nM 25-hydroxy [26,27-^3H]-cholesterol and 50 μL of 24 nM RORγ LBD. The plate was shaken at 700 rpm for 20 min and incubated for 10 min at rt, after which 40 μL of poly-Lys YSi SPA beads (PerkinElmer, Cat. #RPNQ0010) were added to achieve 50 μg of the beads per well. The plate was incubated on an orbital shaker for 20 min and then for 10 min without agitation at rt. SPA signal for tritium beta radiation was registered on PerkinElmer Microbeta plate reader. […] The percent inhibition vs. concentration data were fit into a four-parameter model, and IC50 values were calculated from the fit as the concentrations corresponding to the inflection points on the dose-response curves. Inhibitory constants (Ki) were calculated using the following equation, where [RL] is the concentration in the assay and KD is a dissociation constant of 25-hydroxy [26,27-^3H]-cholesterol: […]

[1] = head without unit (Tables 15, 17)
[2] = 25-hydroxy [26,27-3H]-cholesterol

Structure (SMILES)	Ki [1]	Ki [2]
CCS(=O)(=O)c1ccc(CNC(=O)c2cnc3c(c2)CCN(Cc2ccc(C#N)cc2)C3C(C)C)cc1 (single isomer, unassigned) [Hy2B-7.2]	> 1000 nM	–
CCS(=O)(=O)c1ccc(CNC(=O)c2ccc3c(c2)CN(c2ncc(N4CCOCC4)cn2)C[C@H]3C(C)C)cc1 (single isomer, unassigned) [Hy7-19.1]	–	100 to 1000 nM
CCS(=O)(=O)c1ccc(CNC(=O)c2ccc3c(c2)CCN(Cc2ccc(C#N)cn2)[C@@H]3C(C)C)cc1 (single isomer, unassigned) [Hy2A-16.2]	–	100 to 1000 nM
CCS(=O)(=O)c1ccc(CNC(=O)c2ccc3c(c2)CN(c2ncc(-c4ccc(=O)[nH]c4)cn2)C[C@@H]3C(C)C)cc1 (single isomer, unassigned) [Hy7-21.2]	–	> 1000 nM
CCS(=O)(=O)c1ccc(CNC(=O)c2ccc3c(c2)CCN(Cc2ncc(C)cn2)[C@@H]3C(C)C)cc1 (single isomer, unassigned) [Hy2A-12.2]	–	> 1000 nM
CCS(=O)(=O)c1ccc(CNC(=O)c2cnc3c(c2)CCN(c2ncc(C#N)cn2)[C@H]3C(C)C)cc1 (single isomer, unassigned) [Hy2B-1.1]	> 1000 nM	–
CCOC(=O)c1cnc(N2CCc3cc(C(=O)NCc4ccc(S(=O)(=O)CC)cc4)ccc3[C@@H]2C(C)C)nc1 (single isomer, unassigned) [Hy2A-4.1]	–	100 to 1000 nM
CCOC(=O)c1cnc(N2Cc3cc(C(=O)NCc4ccc(S(=O)(=O)CC)cc4)ccc3[C@@H](C(C)C)C2)nc1 (single isomer, unassigned) [Hy7-16.2]	–	100 to 1000 nM
CCOc1cnc(N2Cc3cc(C(=O)NCc4ccc(S(=O)(=O)CC)cc4)ccc3[C@@H](C(C)C)C2)nc1 (single isomer, unassigned) [Hy7-5.2]	–	100 to 1000 nM
CCS(=O)(=O)c1ccc(CNC(=O)c2cnc3c(c2)CCN(c2ncc(C(F)(F)F)cn2)[C@H]3C(C)C)cc1 (single isomer, unassigned) [Hy2B-3.1]	100 to 1000 nM	–
CCS(=O)(=O)c1ccc(CNC(=O)c2ccc3c(Oc4ccc(C(F)(F)F)cc4)nccc3c2)cc1 [Hy1A-2, N-(4-(ethylsulfonyl)benzyl)-1-(4-(trifluoromethyl)phenoxy)isoquinoline-6-carboxamide]	–	100 to 1000 nM
CCS(=O)(=O)c1ccc(CNC(=O)c2cnc3c(c2)CCN(C[C@H]2CC[C@H](C(F)(F)F)CC2)[C@@H]3C(C)C)nc1 (single isomer, unassigned) [Hy2B-10.2]	100 to 1000 nM	–
CCS(=O)(=O)c1ccc(CNC(=O)c2ccc3c(c2)CCN(Cc2ncc(Br)cn2)[C@@H]3C(C)C)cc1 (single isomer, unassigned) [Hy2A-26.2]	–	100 to 1000 nM
CCS(=O)(=O)c1ccc(CNC(=O)c2ccc3c(c2)CCN(Cc2ccc(C#N)cc2)[C@@H]3C(C)C)cc1 (single isomer, unassigned) [Hy2A-15.2]	–	< 100 nM
CCS(=O)(=O)c1ccc(CNC(=O)c2ccc3c(c2)CCN(Cc2ccc(F)cc2)C3C)cc1 (racemic) [Hy2A-8, N-(4-(ethylsulfonyl)benzyl)-2-(4-fluorobenzyl)-1-methyl-1,2,3,4-tetrahydroisoquinoline-6-carboxamide]	–	100 to 1000 nM
CC1c2ccc(C(=O)NCc3ccc(S(C)(=O)=O)cc3)cc2CCN1Cc1ccc(F)cc1 (racemic) [Hy2A-6, 2-(4-fluorobenzyl)-1-methyl-N-(4-(methylsulfonyl)benzyl)-1,2,3,4-tetrahydroisoquinoline-6-carboxamide]	–	> 1000 nM
CCOC(=O)c1cnc(N2CCc3cc(C(=O)NCc4ccc(S(=O)(=O)CC)cc4)ccc3[C@H]2C(C)C)nc1C(F)(F)F (single isomer, unassigned) [Hy2A-5.2]	–	100 to 1000 nM
CCS(=O)(=O)c1ccc(CNC(=O)c2cnc3c(c2)CCN(c2ncc(Cl)cn2)[C@H]3C(C)C)cc1 (single isomer, unassigned) [Hy2B-2.1]	100 to 1000 nM	–
CC[C@H]1CN(c2ncc(C(F)(F)F)cc2C#N)Cc2cc(C(=O)N[C@@H](CO)c3ccc(S(=O)(=O)CC)cc3)ccc21 (single isomer, unassigned) [Hy7-37.2]	–	< 100 nM

Structure (SMILES)	Ki [1]	Ki [2]
CCS(=O)(=O)c1ccc(CNC(=O)c2ccc3c(c2)CCN(c2ncc(C#N)cn2)[C@H]3C(C)C)cc1 (single isomer, unassigned) [Hy2A-1.2]	–	100 to 1000 nM
CC[C@@H]1CN(c2ncc(C(F)(F)F)cn2)Cc2cc(C(=O)NCc3ccc(S(=O)(=O)CC)cn3)ccc21 (single isomer, unassigned) [Hy7-10.2]	–	100 to 1000 nM
CCS(=O)(=O)c1ccc(CNC(=O)c2c[nH]c3c(OC[C@H]4CC[C@H](C(F)(F)F)CC4)nccc23)cc1 [Hy5-2, N-(4-(ethylsulfonyl)benzyl)-7-(((1r,4r)-4-(trifluoromethyl)cyclohexyl)methoxy)-1H-pyrrolo[2,3-c]pyridine-3-carboxamide]	–	100 to 1000 nM
CCC1CN(C2CCC(C(F)(F)F)CC2)Cc2cc(C(=O)NC(CO)c3ccc(S(=O)(=O)CC)cc3)ccc21 (single isomer, unassigned) [Hy7-35.3]	–	< 100 nM
CCS(=O)(=O)c1ccc(CNC(=O)c2cnc3c(C4CC4)n(C[C@H]4CC[C@H](C(F)(F)F)CC4)nc3c2)nc1 [Hy3B-3, 3-cyclopropyl-N-((5-(ethylsulfonyl)pyridin-2-yl)methyl)-2-(((1r,4r)-4-(trifluoromethyl)cyclohexyl)methyl)-2H-pyrazolo[4,3-b]pyridine-6-carboxamide]	–	100 to 1000 nM
CC[C@@H]1CN(C2CCOCC2)Cc2cc(C(=O)N[C@@H](CO)c3ccc(S(=O)(=O)CC)cc3)ccc21 (single isomer, unassigned) [Hy7-30.1]	–	100 to 1000 nM
CC[C@H]1CN(C2CCC(F)(F)CC2)Cc2cc(C(=O)N[C@@H](CO)c3ccc(S(=O)(=O)CC)cc3)ccc21 (single isomer, unassigned) [Hy7-32.2]	–	100 to 1000 nM
CCS(=O)(=O)c1ccc([C@H](CO)NC(=O)c2cnc3c(C4CC4)n(C[C@H]4CC[C@H](C(F)(F)F)CC4)nc3c2)nc1 [Hy3B-4, 3-cyclopropyl-N-((R)-1-(5-(ethylsulfonyl)pyridin-2-yl)-2-hydroxyethyl)-2-(((1r,4R)-4-(trifluoromethyl)cyclohexyl)methyl)-2H-pyrazolo[4,3-b]pyridine-6-carboxamide]	–	< 100 nM
CCS(=O)(=O)c1ccc(CNC(=O)c2cn(C)c3c(Oc4ccc(C(F)(F)F)cc4)nccc23)cc1 [Hy5-1, N-(4-(ethylsulfonyl)benzyl)-1-methyl-7-(4-(trifluoromethyl)phenoxy)-1H-pyrrolo[2,3-c]pyridine-3-carboxamide]	–	100 to 1000 nM
CCS(=O)(=O)c1ccc(CNC(=O)c2ccc3c(OCc4ccc(C(F)(F)F)cc4)cc(C)nc3c2)cc1 [Hy1B-1, N-(4-(ethylsulfonyl)benzyl)-2-methyl-4-((4-(trifluoromethyl)benzyl)oxy)quinoline-7-carboxamide]	–	100 to 1000 nM
CCS(=O)(=O)c1ccc(CNC(=O)c2cnc3c(c2)CCN(c2ncc(Cl)cn2)[C@@H]3C(C)C)cc1 (single isomer, unassigned) [Hy2B-2.2]	> 1000 nM	–
CCS(=O)(=O)c1ccc(CNC(=O)c2cn(C)c3c(OC[C@H]4CC[C@H](C(F)(F)F)CC4)nccc23)cc1 [Hy5-4, N-(4-(ethylsulfonyl)benzyl)-1-methyl-7-(((1r,4r)-4-(trifluoromethyl)cyclohexyl)methoxy)-1H-pyrrolo[2,3-c]pyridine-3-carboxamide]	–	100 to 1000 nM
CCC1CN(C2CCC(C(F)(F)F)CC2)Cc2cc(C(=O)NC(CO)c3ccc(S(=O)(=O)CC)cc3)ccc21 (single isomer, unassigned) [Hy7-35.4]	–	100 to 1000 nM
CCS(=O)(=O)c1ccc(CNC(=O)c2cnc3c(c2)CCN(Cc2ccc(F)cc2)C3C(C)C)cc1 (single isomer, unassigned) [Hy2B-6.2]	100 to 1000 nM	–
CCS(=O)(=O)c1ccc(CNC(=O)c2ccc3c(c2)C(C)(C)CN(Cc2cnc(C)cn2)[C@@H]3C(C)C)cc1 (single isomer, unassigned) [Hy2A-22.2]	–	100 to 1000 nM
CCS(=O)(=O)c1ccc(CNC(=O)c2ccc3c(c2)CN(c2ncc(C(F)(F)F)cn2)C[C@@H]3C(C)C)cc1 (single isomer, unassigned) [Hy7-15.2]	–	< 100 nM
CCS(=O)(=O)c1ccc([C@H](CO)NC(=O)c2ccc3c(OC[C@H]4CC[C@H](C(F)(F)F)CC4)cc(C)nc3c2)cc1 [Hy1B-4, N-((R)-1-(4-(ethylsulfonyl)phenyl)-2-hydroxyethyl)-2-methyl-4-(((1r,4R)-4-(trifluoromethyl)cyclohexyl)methoxy)quinoline-7-carboxamide]	–	100 to 1000 nM
CCS(=O)(=O)c1ccc(CNC(=O)c2ccc3c(c2)CCN(Cc2ccc(C#N)cc2)C3C)cc1 (racemic) [Hy2A-10, 2-(4-cyanobenzyl)-N-(4-(ethylsulfonyl)benzyl)-1-methyl-1,2,3,4-tetrahydroisoquinoline-6-carboxamide]	–	100 to 1000 nM
